Measurements from patent US11530226B2, “Azepane inhibitors of menin-MLL interaction” (Janssen Pharmaceutica NV, priority 2016, dated 2022).

What follows are molecules tested against T1, terbium chelate-labeled menin / FITC-MBM1 peptide (Menin/MLL) (Homo sapiens, UniProt O00255, T541A) (assay: Menin/MLL homogenous time-resolved fluorescence (HTRF) assay). Settings: read-out: (2) Menin HTRF assay (IC50 (nM)).
T1 construct: Menin (a. a. l-610-6×his tag) was labeled with terbium cryptate as follows
T1 sequence (O00255 with tags, fused parts or gaps T541A): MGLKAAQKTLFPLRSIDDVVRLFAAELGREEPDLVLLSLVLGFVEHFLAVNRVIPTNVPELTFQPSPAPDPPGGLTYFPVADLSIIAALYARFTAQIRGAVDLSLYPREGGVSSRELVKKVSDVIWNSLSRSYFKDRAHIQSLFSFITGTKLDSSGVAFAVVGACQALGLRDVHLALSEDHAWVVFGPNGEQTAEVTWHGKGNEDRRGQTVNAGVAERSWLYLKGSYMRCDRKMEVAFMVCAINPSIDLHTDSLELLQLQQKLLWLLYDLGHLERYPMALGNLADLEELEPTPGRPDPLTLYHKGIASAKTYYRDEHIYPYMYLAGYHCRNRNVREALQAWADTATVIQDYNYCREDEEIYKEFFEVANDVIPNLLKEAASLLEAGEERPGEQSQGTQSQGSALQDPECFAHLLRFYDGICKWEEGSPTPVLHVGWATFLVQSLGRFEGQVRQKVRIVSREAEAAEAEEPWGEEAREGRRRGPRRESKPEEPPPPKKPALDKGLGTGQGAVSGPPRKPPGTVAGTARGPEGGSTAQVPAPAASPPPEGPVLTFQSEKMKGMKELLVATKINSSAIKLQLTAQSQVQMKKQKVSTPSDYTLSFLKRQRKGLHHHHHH
Assay type: binding
Experimental: 2) Menin/MLL Homogenous Time-Resolved Fluorescence (HTRF) Assay
To an untreated, white 384-well microtiter plate was added 40 nL 200× test compound in DMSO and 4 μL 2× terbium chelate-labeled menin (vide infra for preparation) in assay buffer (40 mM Tris .HCl, pH 7.5, 50 mM NaCl, 1 mM DTT and 0.05% Pluronic F-127). After incubation of test compound and terbium chelate-labeled menin for 5 min at ambient temperature, 4 μL 2×FITC-MBM1 peptide (FITC-P-alanine-SARWRFPARPGT-NH2) in assay buffer was added, the microtiter plate centrifuged at 1000 rpm for 1 min and the assay mixtures incubated for 15 min at ambient temperature. The relative amount of menin ⋅FITC-MBM1 complex present in an assay mixture is determined by measuring the homogenous time-resolved fluorescence (HTRF) of the terbium/FITC donor/acceptor fluorphore pair using a BMG Pherastar plate reader (ex. 337 nm/terbium cm. 490 nm/FITC cm. 520 nm) at ambient temperature. The degree of fluorescence resonance energy transfer (the HTRF value) is expressed as the ratio of the fluorescence emission intensities of the FITC and terbium fluorophores (P^m 520 nm//F^em 490 nm). The final concentrations of reagents in the binding assay are 100 pM terbium chelate-labeled menin, 75 nM FITC-MBM1 peptide and 0.5%) DMSO in assay buffer. Dose-response titrations of test compounds are conducted using an 11 point, three-fold serial dilution scheme, starting typically at 25 μM.
Compound potencies were determined by first calculating % inhibition at each compound concentration according to equation 1: % inhibition=((HC−LC)−(HTRF^compound−LC))/(HC−LC))*100 (Eqn 1)
Where LC and HC are the HTRF values of the assay in the presence or absence of a saturating concentration of a compound that competes with FITC-MBM1 for binding to menin, and HTRF^compound is the measured HTRF value in the presence of the test compound. HC and LC HTRF values represent an average of at least 16 replicates per plate.
Where Bottom and Top are the lower and upper asymptotes of the dose-response curve, respectively, IC50 is the concentration of compound that yields 50% inhibition of signal and h is the Hill coefficient.
Preparation of Terbium cryptate labeling of Menin: Menin (a. a. l-610-6×his tag) was labeled with terbium cryptate as follows. 2 mg of Menin was buffer exchanged into 1× phosphate buffered saline. 16 uM Menin was incubated with 4-fold molar excess NHS-terbium cryptate (Cisbio Bioassays, Bedford, Mass.) for 2 hours at room temperature. The labeled protein was purified away from free label by running the reaction over a Superdex 200 Increase 10/300 GL column at 0.75 ml/min. Peak fractions were collected, aliquoted and frozen at −80° C.

Row | IC50 | SMILES
1 | 11900 nM | C[C@@H](N[C@@H]1CCCN(c2ncnc3sc(CC(F)(F)F)cc23)CC1)c1cnn(C)c1 (single isomer, unassigned) [Compound 54A]
2 | 13200 nM | C[C@H](N[C@@H]1CCCN(c2ncnc3sc(CC(F)(F)F)cc23)CC1)c1cnn(C)c1 (single isomer, unassigned) [Compound 54B]
3 | 1490 nM | C[C@H](N[C@H]1CCCN(c2ncnc3sc(CC(F)(F)F)cc23)CC1)c1cnn(C)c1 (single isomer, unassigned) [Compound 54C]
4 | 6760 nM | C[C@@H](N[C@H]1CCCN(c2ncnc3sc(CC(F)(F)F)cc23)CC1)c1cnn(C)c1 (single isomer, unassigned) [Compound 54D]
5 | 1550 nM | CC(C)CN(Cc1cnn(C)c1)[C@@H]1CCCN(c2ncnc3sc(CC(F)(F)F)cc23)CC1 (single isomer, unassigned) [Compound 58A]
6 | 888 nM | CC(C)CN(Cc1cnn(C)c1)[C@H]1CCCN(c2ncnc3sc(CC(F)(F)F)cc23)CC1 (single isomer, unassigned) [Compound 58B]
7 | 709 nM | FC(F)(F)Cc1cc2c(N3CCC[C@@H](N(Cc4ccccc4)C4COC4)CC3)ncnc2s1 (single isomer, unassigned) [Compound 59A]
8 | 1150 nM | FC(F)(F)Cc1cc2c(N3CCC[C@H](N(Cc4ccccc4)C4COC4)CC3)ncnc2s1 (single isomer, unassigned) [Compound 59B]
9 | 3500 nM | Cn1ncc2c1CCC[C@H]2N[C@@H]1CCCN(c2ncnc3sc(CC(F)(F)F)cc23)CC1 (single isomer, unassigned) [Compound 65A]
10 | 7440 nM | Cn1cc2c(n1)CCC[C@H]2N[C@@H]1CCCN(c2ncnc3sc(CC(F)(F)F)cc23)CC1 (single isomer, unassigned) [Compound 66A]
11 | 5380 nM | Cn1cc2c(n1)CCC[C@H]2N[C@H]1CCCN(c2ncnc3sc(CC(F)(F)F)cc23)CC1 (single isomer, unassigned) [Compound 66C]
12 | 880 nM | Cn1cc2c(n1)CCC[C@@H]2N[C@H]1CCCN(c2ncnc3sc(CC(F)(F)F)cc23)CC1 (single isomer, unassigned) [Compound 66D]
13 | 522 nM | C[C@@H]1CCN(c2ncnc3sc(CC(F)(F)F)cc23)CC[C@@H]1NCc1ccccc1 (single isomer, unassigned) [Compound 68B]
14 | 4470 nM | CC(C)[C@@H](CO)N[C@@H]1CCCN(c2ncnc3sc(CC(F)(F)F)cc23)CC1 [Compound 14A]
15 | 767 nM | CC(C)[C@@H](CO)N[C@H]1CCCN(c2ncnc3sc(CC(F)(F)F)cc23)CC1 [Compound 14B]

Continued, molecule first:

Row | SMILES | IC50
16 | Cc1ccc(CN[C@@H]2CCCN(c3ncnc4sc(CC(F)(F)F)cc34)CC2)c(C)c1 (single isomer, unassigned) [Compound 9A] | 548 nM
17 | Cn1cc(CNC2CCCN(c3ncnc4sc(CC(F)(F)F)cc34)CC2)cn1 (single isomer, unassigned) [Compound 11B] | 1470 nM
18 | CC(C)N[C@@H]1CCCN(c2ncnc3sc(CC(F)(F)F)cc23)CC1 (single isomer, unassigned) [Compound 13A] | 5270 nM
19 | CC(C)NC1CCCN(c2ncnc3sc(CC(F)(F)F)cc23)CC1 (single isomer, unassigned) [Compound 13B] | 2460 nM
20 | FC(F)(F)Cc1cc2c(N3CCC[C@@H](NCc4cn[nH]c4)CC3)ncnc2s1 (single isomer, unassigned) [Compound 26] | 27 nM
21 | CC(C)[C@H](N[C@H]1CCCN(c2ncnc3sc(CC(F)(F)F)cc23)CC1)C1CNC1 (single isomer, unassigned) [Compound 32] | 758 nM
22 | CC(C)[C@@H](N[C@@H]1CCCN(c2ncnc3sc(CC(F)(F)F)cc23)CC1)C1CNC1 (single isomer, unassigned) [Compound 35] | 1010 nM
23 | O=C(NC1CCCN(c2ncnc3sc(CC(F)(F)F)cc23)CC1)[C@H]1CC2(CC2)CN1 (stereo partly shown) [Compound 10A] | 1530 nM
24 | CNCCN(Cc1cnn(C)c1)C1CCCN(c2ncnc3sc(CC(F)(F)F)cc23)CC1 (stereo not shown) [Compound 39] | 852 nM
25 | CNC(=O)[C@@H](NC1CCCN(c2ncnc3sc(CC(F)(F)F)cc23)CC1)C(C)C (stereo partly shown) [Compound 52] | 20800 nM
